# Experiments:
# JAK3 = test: JAK3-mediated cell assay (HT-2/IL-2 assay), STAT5 phosphorylation; format: cell-based; conditions: HT2; STAT5 phosphorylation induced by IL-2 (20 ng/ml) in HT-2 cells, HTRF
# Experimental: The inhibitory activities against JAK3 kinase at the cellular level were measured for the compounds prepared in the Examples through in vitro analysis of STAT5 phosphorylation induced by IL-2 stimulation in HT-2 cells. Specifically, STAT5 phosphorylation was analyzed using HTRF® phospho-STAT5 (Tyr694) assay kit (Cisbio, 64AT5PEG), which was purchased from Cisbio. HT-2 cells were cultured for 2 hours in growth factor-free medium. The cultured HT-2 cells were dispensed into 96-well plates by 50 ul so as to be a density of 2.5×10^5 cells/well. The compounds prepared in the previous Examples were prepared so as to be finally a 0.3% DMSO aqueous solution, and HT-2 cells was treated with the compounds for 30 minutes. After the compound treatment, IL-2 was prepared so as to be finally a concentration of 20 ng/ml, and HT-2 cells was treated for 10 minutes. The cells were then disrupted by treating lysis buffers for 30 minutes. The level of STAT5 phosphorylation was measured according to the instructions of HTRF® phospho-STAT5 assay kit, and the inhibitory activity of the compounds according to the invention was calculated. For the analysis of the results of each compound, Microsoft Excel was used, and IC50 values were calculated by SigmaPlot software.
# human BTK = human BTK (Homo sapiens (Human), UniProt Q06187); test: BTK kinase inhibitory activity, ADP Glo assay; conditions: read-out: BTK IC50, recombinant human BTK, ATP 10 uM
# human JAK3 = human JAK3 (Homo sapiens (Human), UniProt P52333); test: JAK3 kinase inhibitory activity, ADP Glo assay; conditions: read-out: JAK3 IC50, recombinant human JAK3, ATP 5 uM
# Chain of human JAK3 (P52333 whole entry): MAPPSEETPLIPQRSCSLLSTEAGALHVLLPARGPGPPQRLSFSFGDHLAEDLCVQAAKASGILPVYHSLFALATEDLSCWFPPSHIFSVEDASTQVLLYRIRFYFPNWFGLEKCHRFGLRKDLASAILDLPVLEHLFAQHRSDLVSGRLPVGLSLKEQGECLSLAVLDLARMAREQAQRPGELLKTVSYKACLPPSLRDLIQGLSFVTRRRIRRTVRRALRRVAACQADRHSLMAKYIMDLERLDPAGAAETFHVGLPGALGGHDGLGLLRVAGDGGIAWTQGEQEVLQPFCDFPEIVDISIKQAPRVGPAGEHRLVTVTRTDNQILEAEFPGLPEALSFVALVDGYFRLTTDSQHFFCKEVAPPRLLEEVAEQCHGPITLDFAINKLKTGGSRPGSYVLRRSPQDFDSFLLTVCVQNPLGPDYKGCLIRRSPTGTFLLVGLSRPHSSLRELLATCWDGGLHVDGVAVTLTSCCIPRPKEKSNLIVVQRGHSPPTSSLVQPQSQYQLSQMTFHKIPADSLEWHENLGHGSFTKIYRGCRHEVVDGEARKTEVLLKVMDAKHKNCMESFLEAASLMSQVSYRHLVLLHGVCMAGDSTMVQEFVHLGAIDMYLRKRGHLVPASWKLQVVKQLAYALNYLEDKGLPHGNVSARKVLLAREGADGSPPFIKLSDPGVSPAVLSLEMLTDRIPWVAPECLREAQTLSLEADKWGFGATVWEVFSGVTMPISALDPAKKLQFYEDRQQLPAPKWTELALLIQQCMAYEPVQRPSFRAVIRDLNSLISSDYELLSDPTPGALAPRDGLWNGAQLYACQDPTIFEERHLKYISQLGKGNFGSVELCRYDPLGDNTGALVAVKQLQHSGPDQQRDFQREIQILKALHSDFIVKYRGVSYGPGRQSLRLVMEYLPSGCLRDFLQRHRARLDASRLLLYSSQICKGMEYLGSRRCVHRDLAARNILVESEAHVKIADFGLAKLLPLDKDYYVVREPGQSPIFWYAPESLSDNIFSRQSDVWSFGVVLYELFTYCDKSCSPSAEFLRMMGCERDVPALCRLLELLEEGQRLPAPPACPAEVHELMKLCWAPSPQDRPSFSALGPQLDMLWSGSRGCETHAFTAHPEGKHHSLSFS
# Chain of human BTK (Q06187 whole entry): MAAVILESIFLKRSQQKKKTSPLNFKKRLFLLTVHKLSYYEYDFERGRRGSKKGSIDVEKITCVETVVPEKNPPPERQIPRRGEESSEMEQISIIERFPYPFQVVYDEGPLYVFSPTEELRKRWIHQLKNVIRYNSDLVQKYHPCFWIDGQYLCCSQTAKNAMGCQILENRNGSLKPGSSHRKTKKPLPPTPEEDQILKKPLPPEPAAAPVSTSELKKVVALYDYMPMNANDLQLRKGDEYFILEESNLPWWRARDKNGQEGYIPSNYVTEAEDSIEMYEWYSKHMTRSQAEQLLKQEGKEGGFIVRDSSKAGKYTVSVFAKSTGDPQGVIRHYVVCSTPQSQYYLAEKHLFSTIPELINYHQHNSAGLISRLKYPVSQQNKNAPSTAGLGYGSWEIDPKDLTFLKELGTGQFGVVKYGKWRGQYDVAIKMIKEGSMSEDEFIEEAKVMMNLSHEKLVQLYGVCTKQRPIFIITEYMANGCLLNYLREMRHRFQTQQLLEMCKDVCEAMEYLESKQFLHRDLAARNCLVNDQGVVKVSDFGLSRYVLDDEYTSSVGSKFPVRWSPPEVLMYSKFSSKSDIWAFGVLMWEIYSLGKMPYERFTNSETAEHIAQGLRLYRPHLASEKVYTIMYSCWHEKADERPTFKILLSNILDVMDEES
IC50 (JAK3),IC50 (human BTK),IC50 (human JAK3),Compound
90.9 nM,1.2 nM,0.3 nM,"C=CC(=O)N1C[C@H](Nc2nc(Nc3cnn(CC)c3)nc3[nH]cc(Cl)c23)CC[C@@H]1C [Example 1, 1-((2S,5R)-5-((5-chloro-2-((1-ethyl-1H-pyrazol-4-yl)amino)-7H-pyrrolo[2,3-d]pyrimidin-4-yl)amino)-2-methylpiperidin-1-yl)prop-2-en-1-one]"
360 nM,1.3 nM,0.4 nM,"C=CC(=O)N1C[C@H](Nc2nc(Nc3cnn(CC)c3)nc3[nH]ccc23)CC[C@@H]1C [Example 2, 1-((2S,5R)-5-((2-((1-ethyl-1H-pyrazol-4-yl)amino)-7H-pyrrolo[2,3-d]pyrimidin-4-yl)amino)-2-methylpiperidin-1-yl)prop-2-en-1-one]"
–,3.5 nM,1.8 nM,"C=CC(=O)N1C[C@H](Nc2nc(Nc3cnn(CC(C)C)c3)nc3[nH]ccc23)CC[C@@H]1C [Example 3, 1-((2S,5R)-5-((2-((1-isobutyl-1H-pyrazol-4-yl)amino)-7H-pyrrolo[2,3-d]pyrimidin-4-yl)amino)-2-methylpiperidin-1-yl)prop-2-en-1-one]"
–,5.4 nM,2.2 nM,"C=CC(=O)N1C[C@H](Nc2nc(Nc3cnn(C4CCCC4)c3)nc3[nH]ccc23)CC[C@@H]1C [Example 4, 1-((2S,5R)-5-((2-((1-cyclopentyl-1H-pyrazol-4-yl)amino)-7H-pyrrolo[2,3-d]pyrimidin-4-yl)amino)-2-methylpiperidin-1-yl)prop-2-en-1-one]"
–,5.3 nM,1.2 nM,C=CC(=O)N1C[C@H](Nc2nc(Nc3cnn(CCNC(=O)OC(C)(C)C)c3)nc3[nH]ccc23)CC[C@@H]1C [Example 5]
–,3.4 nM,0.6 nM,C=CC(=O)N1C[C@H](Nc2nc(Nc3cnsc3)nc3[nH]cc(Cl)c23)CC[C@@H]1C [Example 6]
–,1.6 nM,0.3 nM,"C=CC(=O)N1C[C@H](Nc2nc(Nc3cnn(CC(F)F)c3)nc3[nH]cc(Cl)c23)CC[C@@H]1C [Example 7, 1-((2S,5R)-5-((5-chloro-2-((1-(2,2-difluoroethyl)-1H-pyrazol-4-yl)amino)-7H-pyrrolo[2,3-d]pyrimidin-4-yl)amino)-2-methylpiperidin-1-yl)prop-2-en-1-one]"
–,2 nM,0.3 nM,"C=CC(=O)N1C[C@H](Nc2nc(Nc3cnn(C4CC4)c3)nc3[nH]cc(Cl)c23)CC[C@@H]1C [Example 9, 1-((2S,5R)-5-((5-chloro-2-((1-cyclopropyl-1H-pyrazol-4-yl)amino)-7H-pyrrolo[2,3-d]pyrimidin-4-yl)amino)-2-methylpiperidin-1-yl)prop-2-en-1-one]"
–,0.9 nM,5.7 nM,"C=CC(=O)N1C[C@H](N(C)c2nc(Nc3cnn(CC)c3)nc3[nH]nc(Cl)c23)CC[C@@H]1C [Example 11, 1-((2S,5R)-5-((3-chloro-6-((1-ethyl-1H-pyrazol-4-yl)amino)-1H-pyrazolo[3,4-d]pyrimidin-4-yl)(methyl)amino)-2-methylpiperidin-1-yl)prop-2-en-1-one]"
